Experimental data from US20150352114A1, “MITOTIC KINESIN Eg5 INHIBITING ANTICANCER AGENTS” (THE CLEVELAND CLINIC FOUNDATION, priority 2014, published 2015).

Key:
GSCs = experiment: Limiting dilution assay and sphere formation (self-renewal); assay type: cell-based, human; conditions: pretreatment 18 hours with 3 nM; scored ten days later
Experimental: GSCs were isolated from subcutaneous flank xenografts of patient-derived specimens by magnetic sorting as described above and allowed to recover overnight. The next day cells were exposed to vehicle or 3 nM ispinesib for 18 hours. Cells were then washed and triturated into a single cell suspension. Cell sorting was performed using a FACS Aria II Cell Sorter (BD Biosciences, Franklin Lakes, N.J., USA) to plate the cells into 96 well plates at a final cell number per well of 1 (38 wells/plate), 5 (24 wells/plate), 10, 20, or 50 (all at 12 wells/plate). Tumorsphere formation was evaluated 10 days after sorting and wells were scored positive or negative for the presence of at least one tumorsphere. The estimated stem cell frequency was calculated using extreme limiting dilution analysis. Only live cells were selected for using Live/Dead dye blue (Life Technologies).

3691 GBM cells = experiment: Subcutaneous flank tumor study, 3691 GBM xenograft; assay type: in vivo, mice
Experimental: All animal studies described were approved by the Cleveland Clinic Foundation Institutional Animal Care and Use Committee and conducted in accordance with the NIH Guide for the Care and Use of Laboratory Animals. For subcutaneous tumor studies, 1×10^5 freshly dissociated GBM cells from a xenograft originally derived from a primary GBM patient specimen (3691) were injected into the flanks of 10 six week old female athymic nu/nu mice. Tumors were allowed to reach approximately 0.12 cm^3, at which point animals were randomized into either vehicle control (DMSO) group or ispinesib (10 mg/kg given daily for 7 consecutive days by intraperitoneal injection) (Selleck Chemicals, Houston, Tex.). Tumors were monitored and measured daily using perpendicular diameter measurements for 7 days. Tumor volume was calculated using the ellipsoid formula π/6×larger diameter×(smaller diameter)^2. After the last treatment on Day 7, tumors were removed and weighed then processed for immunofluorescence (as described below). For intracranial implantation studies to evaluate tumor initiation by GSCs, the cells were isolated as described below and pre-exposed to drug or vehicle either in vitro or in vivo. For in vitro pre-exposure studies, GSCs from xenograft 3691 were seeded at single cell density and treated with vehicle or ispinesib (3 nM) for 18 hours (300,000 cells per condition). Drug was then washed off and 2,500 or 25,000 viable GSCs were implanted into the right frontal lobes of male NSG mice (n=10 for vehicle, n=7 for ispinesib). For in vivo pre-exposure studies, subcutaneous tumors were established as described above. When tumors reached ˜0.5 cm^3, mice were randomized into a vehicle (DMSO) or ispinesib (10 mg/kg given daily for 3 consecutive days) group. 4 hours after the final treatment, GSCs were isolated as described below and 1,000 or 10,000 viable GSCs were then intracranially implanted into NSG mice (10 mice per group). Mice were monitored daily for neurological impairment at which time they were sacrificed and brains removed to evaluate for tumor development. […]

08-387 GSCs = experiment: Nascent process analysis; assay type: cell-based, human; conditions: 200 nM; 6-hour time course; p<0.0001
Experimental: 08-387 GSCs enriched in interphase were seeded at 6,000 cells per well of a 6 well plate and allowed to adhere for 1 hour. Cells were then exposed to vehicle or 200 nM ispinesib and images recorded over a 6-hour period using the IncuCyte ZOOM (Essen Biosciences, Ann Arbor, Mich.). Process formation was measured using CellPlayer NeuroTrack Software Module (Essen Biosciences).

[1] = test system: pCRMP2 (T514) in interphase GSCs; experiment: CRMP2 phosphorylation immunoblot; assay type: cell-based, human; conditions: 200 nM; 6-hour time course; GSCs
Experimental: FIGS. 8(A-B) illustrate that Eg5 impacts microtubule growth through the CRMP-tubulin deposition pathway; (A) 08-387 GSCs enriched in interphase were exposed to vehicle (DMSO) or ispinesib (200 nM) and harvested for whole cell lysates every two hours over a 6 hour time course. Resulting lysates were probed for CRMP2 and pCRMP2 (T514); (B) Human brain microvascular endothelial cells (HuBrMVECs) were treated with vehicle (DMSO) or ispinesib (200 nM) and harvested for whole cell lysates every three hours over a 6 hour time course. Resulting lysates were probed for CRMP2 and pCRMP2 (T514); For all immunoblots, βactin served as a loading control. Molecular weight (MW) of resulting bands is given in kilodaltons (kD).
Protein extracts were made using a 50 mM Tris pH 8.0, […] NaCl, 0.5% NP-40 lysis solution. Resulting lysates were ran on 10% SDS-PAGE gels and transferred to Immobilon-FL PVDF (Millipore Corp., Billerica, Mass.). The membranes were blocked with 5% (wt/vol) bovine serum albumin in PBS-Tween-20 (0.2% vol/vol) and probed with primary antibodies against Eg5 (mouse, 1:4000, BD Biosciences, San Jose, Calif.), Olig2 (rabbit, 1:1000, abcam, San Francisco, Calif.), GFAP (DAKO; 1:10,000, Carpinteria, Calif.), CRMP2 (mouse, 1:1000, abgent, San Diego, Calif.), pCRMP2(T514) (rabbit, 1:1000, Cell Signaling, Beverly, Mass.), or β-actin (mouse, 1:8000, Sigma-Aldrich, St. Louis, Mo.) as a loading control. Secondary antibodies (LI-COR) were incubated in TBST+0.02% SDS and visualized with the LI-COR Odyssey near infrared imaging system (Lincoln, NB).

SMILES: Cc1ccc(C(=O)N(CCCN)[C@@H](c2nc3cc(Cl)ccc3c(=O)n2Cc2ccccc2)C(C)C)cc1 [ispinesib, N-(3-amino-propyl)-n-[R-1-(3-benzyl-7-choloro-4-oxo-3,4-dihydroquinazolin-2-yl)-2-methyl-propyl]-4-methyl-benzamide methanesulfonate]
- stem cell frequency (tumorsphere formation) (GSCs): significantly compromised
- tumor volume (3691 GBM cells; 10 mg/kg daily intraperitoneal, 7 consecutive days): significantly reduced
- tumor weight (3691 GBM cells; 10 mg/kg daily intraperitoneal, 7 consecutive days, day 7): significantly reduced
- Sox2 positive cells in end stage tumors (3691 GBM cells; 10 mg/kg daily, 7 days): no Sox2 positive cells
- process length in GSCs (08-387 GSCs): appreciably attenuated
- phospho-CRMP2 (T514) [1]: significant increase
